Earlier results on one molecule are cited in patent US10953063B2, “Method of treating select cancers using timed administration of plant extract from species Physalis pubescens and Hedyotis diffusa willd” (priority 2018, dated 2021).

The structures appear in SMILES notation.

The data set relates to human leukemia cells. The conditions noted are these: research findings.

Turning to `Cc1cc2c(cc1O)C(=O)c1ccccc1C2=O` [2-Hydroxy-3-Methylanthraguinone], the “apoptosis in human leukemia cells” value is “induces apoptosis”.
